Read-outs that look alike come from different tables or passages of the source.
How the values were obtained:
[1] = system: Ishikawa cells; experiment: Ishikawa Cell Alkaline Phosphatase Assay; type: cell-based; conditions: Homo sapiens, 48 h
Procedure: Ishikawa Cell Alkaline Phosphatase Assay
Cell Maintenance and Treatment:
Ishikawa cells were maintained in DMEM/F12 (50%:50%) containing phenol red+10% fetal bovine serum and the medium was supplemented with 2 mM Glutamax, 1% Pen/Strap and 1 mM sodium pyruvate. Five days prior to the beginning of each experiment (treatment of cells) the medium was changed to phenol red-free DMEM/F12+10% dextran coated charcoal stripped serum. On the day before treatment, cells were harvested using 0.5% trypsin/EDTA and plated at a density of 5×10^4 cells/well in 96-well tissue culture plates. […] Cells were treat for 48 h prior to assay. […] Sample population for at each dose was n=8.
Alkaline Phosphatase Assay:
At the end of 48 h the media is aspirated and cells are washed three times with phosphate buffered saline (PBS). 50 μL of lysis buffer (0.1 M Tris-HCl, pH 9.8, 0.2% Triton X-100) is added to each well. Plates are placed at -80° C. for a minimum of 15 minutes. Plates are thawed at 37° C. followed by the addition of 150 μL of 0.1 M Tris-HCl, pH 9.8, containing 4 mM para-nitrophenylphosphate (pNPP) to each well (final concentration, 3 mM pNPP).
Absorbance and slope calculations were made using the KineticCalc Application program (Bio-Tek Instruments, Inc., Winooski, Vt.). Results are expressed as the mean±S.D. of the rate of enzyme reaction (slope) averaged over the linear portion of the kinetic reaction curve (optical density readings every 5 minutes for 30 minutes absorbance reading).
A description of these methods is described by Holinka, C.

[2] = molecular target: T1, human estrogen receptor (Homo sapiens, UniProt P03372); experiment: 2X VIT ERE Transfection Assay (luciferase, CHO cells stably transfected with human estrogen receptor); type: cell-based; conditions: 24 h
T1 construct: expressed in transfected cells
Procedure: 2X VIT ERE Transfection Assay
Cell Maintenance and Treatment
Chinese Hamster Ovary cells (CHO) which had been stably transfected with the human estrogen receptor were maintained in DMEM+10% fetal bovine serum (FBS). 48 h prior to treatment the growth medium was replaced with DMEM lacking phenol red+10% dextran coated charcoal stripped FBS (treatment medium). Cells were plated at a density of 5000 cells/well in 96-well plates containing 200 μL of medium/well.
Calcium Phosphate Transfection
Reporter DNA (Fromega plasmid pGL2 containing two tandem copies of the vitellogenin ERE in front of the minimal thymidine kinase promoter driving the luciferase gene) was combined with the β-galactosidase expression plasmid pCH110 (Pharmacia) and carrier DNA (pTZ18U) in the following ratio:
20 μg of DNA/1 mL of transfection solution
The DNA (20 μg) was dissolved in 500 μL of 250 mM sterile CaCl2 and added dropwise to 500 μL of 2X HeBS (0.28 M NaCl, 50 mM HEPES, 1.5 mM Na2 HPO4, pH 7.05) and incubated at room temperature for 20 minutes. 20 μL of this mixture was added to each well of cells and remained on the cells for 16 h. […] Each treatment condition was performed on 8 wells (n=8) which were incubated for 24 h prior to the luciferase assay.
After 24 h exposure to compounds, the media was removed and each well washed with 2X with 125 μL of PBS lacking Mg^++ and Ca^++. […] The luciferan substrate (Promega) was added in 100 μL aliquots to each well automatically by the luminometer and the light produced (relative light units) was read 10 seconds after addition.
To the remaining 5 μL of lysate 45 μL of PBS was added. […] The plates were analyzed on a Molecular Devices specrophotometric plate reader at 410 nm. […]
The luciferase data was generated as relative light units (RLUs) accumulated during a 10 second measurement and automatically transferred to a JMP (SAS Inc.) file where background RLUs were subtracted. […] The mean and standard deviations were determined from a n=8 for each treatment. […]

[3] = molecular target: T2, estrogen receptor (Homo sapiens, UniProt P03372); experiment: In vitro estrogen receptor binding assay (competition with [^3 H]-17-β-estradiol)
T2 construct: made in house; host or cells: Chinese Hamster Ovary (CHO) cells, ribosome-free cytosol
T2 sequence (P03372 1-595): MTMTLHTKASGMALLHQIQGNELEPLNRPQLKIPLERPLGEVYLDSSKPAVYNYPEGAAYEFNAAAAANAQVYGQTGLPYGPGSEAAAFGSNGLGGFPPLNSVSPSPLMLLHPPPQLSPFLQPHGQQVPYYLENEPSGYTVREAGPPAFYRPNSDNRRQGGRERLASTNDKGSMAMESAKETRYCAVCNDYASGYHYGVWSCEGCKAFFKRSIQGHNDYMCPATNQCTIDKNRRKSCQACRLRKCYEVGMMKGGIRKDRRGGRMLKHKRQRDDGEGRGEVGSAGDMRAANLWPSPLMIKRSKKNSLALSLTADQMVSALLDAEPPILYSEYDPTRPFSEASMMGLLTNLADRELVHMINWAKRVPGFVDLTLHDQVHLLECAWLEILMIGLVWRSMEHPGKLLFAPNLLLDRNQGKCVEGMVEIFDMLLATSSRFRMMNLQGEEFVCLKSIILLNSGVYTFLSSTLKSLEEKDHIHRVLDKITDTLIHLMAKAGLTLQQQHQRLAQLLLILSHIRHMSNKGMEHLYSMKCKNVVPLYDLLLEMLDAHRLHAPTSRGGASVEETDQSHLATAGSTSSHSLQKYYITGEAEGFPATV
Procedure: Cells were harvested by scraping the surface and then the cell suspension was placed on ice. […] The cytosol was then frozen and stored at -80° C. Protein concentration of the cytosol was estimated using the BCA assay with reference standard protein.
The plate was incubated at room temperature for 2.5 h. […] Samples were counted to 2% or 10 minutes, whichever occurs first. […] Also, wells containing radioactivity but no cytosol were processed with charcoal to estimate unremovable DPM of [^3 H]
For a description of these methods, see Hulme, E. C., ed. 1992. Receptor-Ligand Interactions: A Practical Approach. IRL Press, New York.(see especially chapter 8).

[4] = system: bone; conditions: background statement; cited from earlier work
[5] = system: uterus; conditions: background statement; cited from earlier work
[6] = Test articles at 10^-6 M, alone, percent of response related to 1 nM 17β-estradiol (control), read-out: % Activation
[7] = Competition With 17-β-estradiol (0.8 nM), CHO cell cytosol

Structure (SMILES)	activation at 1 µM [1, 6] [%]	activation at 1 µM [2] [%]	IC50 ([3]; read-out: IC50) [µM]	IC50 [3, 7]	effect on bone [4]	effect on the uterus [5]	activation at 1 µM [1] [%]
C[C@]12CC[C@@H]3c4ccc(O)cc4CC[C@H]3[C@@H]1CC[C@@H]2O [17-β-estradiol, reference compound]	100						
O=c1c2ccc(O)cc2nc(-c2ccc(O)cc2)n1-c1ccc(OCCN2CCCCC2)cc1 [Example 9, 7-Hydroxy-2-(4-hydroxy-phenyl)-3-{4-[2-(piperidin-1-yl)-ethoxy]-phenyl}-3H-quinazolin-4-one]	0	72	6.5				
O=c1c2cccc(O)c2nc(-c2ccc(OCCN3CCCCC3)cc2)n1-c1ccc(O)cc1 [Example 16, 8-Hydroxy-3-(4-hydroxy-phenyl)-2-{4-[2-(piperidin-1-yl)-ethoxy]-phenyl}-3H-quinazolin-4-one]	0	14		Binding not detected at upper limit of assay			
O=c1c2cccc(O)c2nc(-c2ccc(O)cc2)n1-c1ccc(OCCN2CCCCC2)cc1 [Example 21, 8-Hydroxy-2-(4-hydroxy-phenyl)-3-[4-(2-piperidin-1-yl-ethoxy)-phenyl]-3H-quinazolin-4-one]	0	6		Binding not detected at upper limit of assay			
O=C(c1ccc(OCCN2CCCCC2)cc1)c1c(-c2ccc(O)cc2)sc2cc(O)ccc12 [Raloxifene]	5				sparing bone	stimulate uterine growth in animal models to a lesser degree than Tamoxifen	
CC/C(=C(\c1ccccc1)c1ccc(OCCN(C)C)cc1)c1ccccc1 [Tamoxifen]					increase bone mass	partial agonist effects in the uterus	0
